For one assay, the target named is T1, hERG channel (Homo sapiens, UniProt Q12809).
T1 construct: expressed in transfected cells
In words: hERG electrophysiology, automated whole-cell patch clamp (Patchliner). The assay is classed as cell-based. Conditions: CHO-K1 cells stably expressing hERG; whole cell current inhibition; read-out: hERG IC50. As for the experimental part: (§1) All compounds were dissolved in DMSO at 30 mM.
The pulse frequency was 0.3 Hz.
Data were sampled at 10 kHz without filtering.

Another assay has as its target T2, Kv1.3 potassium channel (Homo sapiens, UniProt P22001).
T2 construct: expressed in transfected cells
In words: Kv1.3 potassium channel blocker activity, automated whole-cell patch clamp (Patchliner). In kind it is cell-based. Conditions: CHO-K1 cells stably expressing Kv1.3; whole cell current inhibition; read-out: Kvl.3 IC50. As for the experimental part:
This assay is used to evaluate the disclosed compounds' activities as Kv1.3 potassium channel blockers.
CHO-K1 cells stably expressing Kv1.3 were grown in DMEM containing 10% heat-inactivated FBS, 1 mM Sodium Pyruvate, 2 mM L-Glutamine and G418 (500 μg/ml).
as §1
The currents were evoked by applying 100 ms depolarizing pulses from −90 mV (holding potential) to +40 mV were applied with 0.1 Hz frequency. […] 10 second breaks were used between pulse trains (see Table A below).
Data were sampled at 10 kHz without filtering. Passive leak currents were subtracted online using a P/4 procedure (HEKA Elektronik Dr. Schulze GmbH). […] Total compound incubation time before the next pulse train was not longer than 10 seconds. Peak current inhibition was observed during compound equilibration.
Background: Patch clamp records ionic current or voltage across a cell membrane.

This passage reports IC50 results from US20220411367A1, “ARYLMETHYLENE HETEROCYCLIC COMPOUNDS AS KV1.3 POTASSIUM SHAKER CHANNEL BLOCKERS” (D. E. Shaw Research, LLC, priority 2019, published 2022).

A word on the IC50: it is the concentration needed to halve the response being measured.

T2 sequence (P22001 whole entry): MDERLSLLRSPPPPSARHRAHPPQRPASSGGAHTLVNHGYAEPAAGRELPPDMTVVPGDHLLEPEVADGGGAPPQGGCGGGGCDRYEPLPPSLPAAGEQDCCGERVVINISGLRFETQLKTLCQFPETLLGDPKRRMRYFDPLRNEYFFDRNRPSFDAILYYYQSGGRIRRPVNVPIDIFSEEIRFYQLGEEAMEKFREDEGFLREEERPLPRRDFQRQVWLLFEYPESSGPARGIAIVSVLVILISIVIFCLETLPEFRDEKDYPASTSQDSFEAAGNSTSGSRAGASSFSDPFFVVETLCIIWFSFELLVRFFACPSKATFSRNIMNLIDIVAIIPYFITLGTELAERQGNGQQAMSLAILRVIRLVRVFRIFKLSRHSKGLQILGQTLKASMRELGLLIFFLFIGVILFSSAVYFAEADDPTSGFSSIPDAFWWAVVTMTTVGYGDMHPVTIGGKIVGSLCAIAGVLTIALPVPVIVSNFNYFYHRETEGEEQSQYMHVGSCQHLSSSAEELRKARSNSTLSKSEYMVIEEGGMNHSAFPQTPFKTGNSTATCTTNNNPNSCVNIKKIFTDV
T1 sequence (Q12809 whole entry): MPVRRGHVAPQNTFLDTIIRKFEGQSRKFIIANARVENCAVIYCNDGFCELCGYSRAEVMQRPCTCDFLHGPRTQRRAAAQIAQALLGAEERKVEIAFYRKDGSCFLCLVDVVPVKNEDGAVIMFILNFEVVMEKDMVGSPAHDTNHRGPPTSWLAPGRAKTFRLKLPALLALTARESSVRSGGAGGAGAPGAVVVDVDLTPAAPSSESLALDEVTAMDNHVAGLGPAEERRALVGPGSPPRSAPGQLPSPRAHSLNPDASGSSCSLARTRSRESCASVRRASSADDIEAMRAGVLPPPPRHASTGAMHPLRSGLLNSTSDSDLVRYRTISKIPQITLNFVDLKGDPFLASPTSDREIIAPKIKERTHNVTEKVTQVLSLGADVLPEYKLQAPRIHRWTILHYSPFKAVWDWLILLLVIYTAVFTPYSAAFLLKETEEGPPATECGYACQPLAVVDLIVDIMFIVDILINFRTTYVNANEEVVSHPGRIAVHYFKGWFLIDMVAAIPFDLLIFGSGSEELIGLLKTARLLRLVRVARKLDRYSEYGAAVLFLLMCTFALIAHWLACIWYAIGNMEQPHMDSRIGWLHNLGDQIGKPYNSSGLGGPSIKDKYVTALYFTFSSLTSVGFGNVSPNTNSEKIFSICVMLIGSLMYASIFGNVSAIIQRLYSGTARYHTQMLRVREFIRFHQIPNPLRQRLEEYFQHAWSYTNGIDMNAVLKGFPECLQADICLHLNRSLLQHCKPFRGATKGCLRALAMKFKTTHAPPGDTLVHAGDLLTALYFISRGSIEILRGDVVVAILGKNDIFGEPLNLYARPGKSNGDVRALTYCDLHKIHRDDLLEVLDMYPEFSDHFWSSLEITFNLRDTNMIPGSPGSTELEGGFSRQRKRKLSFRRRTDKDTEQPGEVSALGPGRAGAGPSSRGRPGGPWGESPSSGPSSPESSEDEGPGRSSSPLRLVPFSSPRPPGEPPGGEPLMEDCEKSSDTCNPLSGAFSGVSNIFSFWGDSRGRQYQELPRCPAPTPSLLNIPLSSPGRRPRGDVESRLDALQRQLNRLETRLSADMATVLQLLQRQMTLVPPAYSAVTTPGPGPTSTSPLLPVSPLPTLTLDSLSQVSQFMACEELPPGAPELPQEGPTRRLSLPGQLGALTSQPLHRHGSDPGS

As to `N#CC1(CO)CCN(Cc2cc(Cl)c(Cl)cc2O)CC1` [Compound 54, 1-[(4,5-dichloro-2-hydroxyphenyl)methyl]-4-(hydroxymethyl)piperidine-4-carbonitrile], the IC50 on hERG channel is less than 30 µM; at Kv1.3 potassium channel it was less than 10 µM.

On to `Oc1cc(Cl)c(Cl)cc1CN1CCC(O)CC1` [Compound 55, 1-[(4,5-dichloro-2-hydroxyphenyl)methyl] piperidin-4-ol], for which the values for the IC50 on hERG channel and at Kv1.3 potassium channel were less than 30 µM and less than 10 µM, respectively.

On to `COCC1CCN(Cc2cc(Cl)c(Cl)cc2O)CC1` [Compound 56, 4,5-dichloro-2-[[4-(methoxymethyl)piperidin-1-yl]methyl]phenol], for which the IC50 was less than 30 µM on hERG channel and less than 10 µM at Kv1.3 potassium channel.

As for `Oc1cc(Cl)c(Cl)cc1CN1CCC2(CCO2)CC1` [Compound 57, 4,5-dichloro-2-[1-oxa-7-azaspiro[3.5]nonan-7-ylmethyl]phenol], the IC50 at hERG channel was less than 30 µM; at Kv1.3 potassium channel, less than 10 µM.

As for `O=C(N1CCOCC1)N1CCN(Cc2cc(Cl)c(Cl)cc2O)CC1` [Compound 58, (4-(4,5-dichloro-2-hydroxybenzyl)piperazin-1-yl)(morpholino) methanone], the IC50 at hERG channel was less than 30 µM; on Kv1.3 potassium channel, less than 10 µM.

With `OCC1CCN(Cc2cc(Br)c(Br)cc2O)CC1` [Compound 60, 4,5-dibromo-2-((4-(hydroxymethyl)piperidin-1-yl)methyl)phenol], the IC50 at hERG channel is less than 30 µM; at Kv1.3 potassium channel, less than 1 µM.

On to `NCC1CCN(Cc2cc(Cl)c(Cl)cc2O)CC1` [Compound 61, 2-((4-(aminomethyl)piperidin-1-yl)methyl)-4,5-dichlorophenol], for which the values for the IC50 at hERG channel and at Kv1.3 potassium channel were less than 30 µM and less than 1 µM, respectively.

For `NC(=O)C1CCN(Cc2cc(Cl)c(Cl)cc2O)CC1` [Compound 62, l-(4,5-dichloro-2-hydroxybenzyl) piperidine-4-carboxamide], the IC50 on hERG channel was less than 30 µM; at Kv1.3 potassium channel, less than 10 µM.

Turning to `O=C(C1CCN(Cc2cc(Br)c(Br)cc2O)CC1)N1CCCC1` [Compound 63, (1-(4,5-dibromo-2-hydroxybenzyl)piperidin-4-yl)(pyrrolidin-1-yl)methanone], the IC50 is less than 30 µM on hERG channel and less than 1 µM at Kv1.3 potassium channel.

In the case of `CC1CCN(Cc2cc(Cl)c(Cl)cc2O)CC1` [Compound 64, 4,5-dichloro-2-((4-methylpiperidin-1-yl)methyl)phenol], the IC50 on hERG channel is less than 30 µM; on Kv1.3 potassium channel, less than 10 µM.

As for `OCC1CCN(Cc2cc(Cl)c(Cl)cc2O)CC1` [Compound 65, 4,5-dichloro-2-((4-(hydroxymethyl)piperidin-1-yl)methyl)phenol], the IC50 on hERG channel was less than 30 µM; at Kv1.3 potassium channel, less than 10 µM.

In the case of `CN(C)C(=O)C1CCN(Cc2cc(Cl)c(Cl)cc2O)CC1` [Compound 66, 1-(4,5-dichloro-2-hydroxybenzyl)-N,N-dimethylpiperidine-4-carboxamide], the IC50 is less than 30 µM at hERG channel and less than 10 µM on Kv1.3 potassium channel.
